{
  "source": "paper PMC5554537",
  "about": "(Frontiers in Pharmacology, 2017)",
  "key": {"NIH-III mice [1]": {"test_system": "NIH-III mice", "source_text": "SUPPLEMTENTAL TABLE 7. Mouse toxicity of SN30000 and M14: Histopathology […]\nMale and female NIH-III mice aged 6-10 weeks were given a single i.p. dose of SN30000 (186, 248 […]\nuntreated control for each sex, fixed in 10% neutral buffered formalin at room temperature for 24-48 hr, transferred to 70% ethanol and subsequently paraffin embedded, sectioned and H&E stained for light microscopy . The following tissues/organs were examined: skin, testes, eyeball, brain, liver, lung, stomach, duodenum, heart, spleen, pancreas, colon, femur and joint (incl marrow), skeletal muscle (psoas) and kidney. Results are reported only for positive findings."}, "[2]": {"test": "Reductive metabolism in liver S9 preparations", "type": "in vitro ADME, NIH-III mice", "details": "for Rate of reduction to M14: 20 μg/ml protein", "experimental": "In vitro hepatic metabolism of SN30000 and M14 was studied using 9,000 g post-mitochondrial supernatants (S9) prepared from livers of female NIH-III mice. Metabolism at 37°C was measured by dilution of S9 to appropriate protein concentrations (measured by BCA protein assay) in sodium/potassium phosphate buffer (67 mM phosphate, pH 7.4) containing 5 mM MgCl2, 1 mM EDTA, 1 mM NADPH, 1 mM NADH and 150 μM test drug. The reaction was terminated by adding an equal volume of ice-cold MeOH and samples were analyzed by LC-MS/MS. Two methods were used to modify the oxygen concentration. Method 1: 96-well plates (reaction volume 0.1 mL/well) were incubated for 30 min on a Eppendorf Thermomixer C (Eppendorf AG, Hamburg, Germany) either under 21% O2 (oxia) or 95% N2/5% CO2 (anoxia) in an anaerobic chamber (Sheldon Manufacturing, Cornelius, OR, United States) as described previously ([Gu et al., 2010]). Method 2: glass vials containing 3 mL final volume were magnetically stirred continuously in a water bath under flowing 5% CO2 containing 0, 0.2, 2, or 20% O2 (certified gas mixtures from BOC Gasses NZ), as detailed previously ([Hicks et al., 2007]), and samples (0.1 mL) were withdrawn at intervals for analysis.\nTo address whether this reflects an oxygen-sensitive (one-electron reduction) or oxygen-insensitive (two-electron reduction) process, metabolism was compared in NIH-III mouse liver S9 preparations under 20% O2 or anoxia. […] Using low protein concentrations (20 μg/ml) to enable assessment of initial rates, reduction to M14 was similar for anoxic liver S9 preparations from male and female NIH-III mice (10.6 ± 0.2 and 9.2 ± 0.2 nmol/min/mg protein, respectively). […] The liver S9 intrinsic clearance, CLint, was calculated as Vmax/Km for M14 formation under anoxia and scaled to the whole liver based on the (unrealistic) assumption that the liver is entirely anoxic. This upper estimate of in vivo hepatic clearance was then predicted as previously described ([Gu et al., 2011b]) using the free fraction of SN30000 in mouse plasma determined by equilibrium dialysis (Supplementary Table 11)."}, "[3]": {"details": "plasma"}, "Wistar rats": {"test_system": "Wistar rats", "test": "Rectal temperature and MTD in rats", "type": "in vivo", "details": "single i.v. dose of 90 mg/kg, preliminary"}, "[4]": {"test": "Rectal temperature and MTD in rats", "type": "in vivo", "details": "rat, in vivo, iv; Wistar rats, single i.v. dose"}, "Urinary excretion": {"test": "Urinary excretion", "type": "in vivo, NIH-III mice", "details": "for Urinary excretion, % of administered dose: 24 h", "procedure": "Mice (20–25 g body weight) were dosed i.p. or by slow bolus (10–20 s) i.v. injection via a lateral tail vein, with co-administration of ^3H-mannitol (0.025 μmol/kg; 67 MBq/g) in some studies as a marker of renal function. For evaluation of acute toxicity, mice were observed continuously for 3 h after dosing, and their activity rated on a lethargy score from 0 representing no change in activity to 5 representing animals that were moribund and required culling. For MTD studies, the animals were checked daily for clinical signs of toxicity and body weight change for 2 weeks. In some studies rectal temperature changes after dosing were measured using a BAT-12 digital microprobe thermometer (Physitemp Instruments, Clifton, NJ, United States) at the times specified in the figures. Blood samples were collected from mice at various times by cardiac puncture, seconds after cervical dislocation, into ice-cold tubes containing K2EDTA. These were placed on ice immediately after collection and centrifuged (3,000 g, 3 min) within 10 min to harvest plasma. Plasma and tissues were rapidly frozen in liquid nitrogen before storage at -80°C for subsequent bioanalysis. Urine samples were collected from mice housed individually in metabolic cages (Minor Metabowl, Jencons, United Kingdom; one animal per cage) with continuous access to food and water."}, "NIH-III mice [5]": {"test_system": "NIH-III mice", "parameters": "method as in Gu et al., 2014", "details": "ref Gu et al., 2014, cited from earlier work; for Survival: 14 days"}},
  "note": "Where two headings read alike, the source gives them in different places.",
  "data": [
    {"molecule": "[O-][n+]1nc(CCCN2CCOCC2)[n+]([O-])c2cc3c(cc21)CCC3", "note": "[SN30000, 3-(3-Morpholinopropyl)-7,8-dihydro-6H-indeno[5,6-e][1,2,4]triazine 1,4-dioxide]", "values": [
      {"measurement": "Histopathology findings, Kidney", "setting": "NIH-III mice [1]; 186 mg/kg i.p., female, 3 examined", "value": "Basophilic cortical tubules (2); karyomegaly in tubular epithelium (3); tubular epithelial necrosis (3)"},
      {"measurement": "Histopathology findings, Kidney", "setting": "NIH-III mice [1]; 248 mg/kg i.p., female, 2 examined", "value": "Basophilic cortical tubules (2); karyomegaly in tubular epithelium (2); tubular epithelial necrosis (2)"},
      {"measurement": "Histopathology findings, Testes", "setting": "NIH-III mice [1]; 248 mg/kg i.p., male, 1 examined", "value": "Degeneration of germinal epithelium (1)"},
      {"measurement": "Histopathology findings, Kidney", "setting": "NIH-III mice [1]; 248 mg/kg i.p., male, 2 examined", "value": "Basophilic cortical tubules (1); karyomegaly in tubular epithelium (1); tubular epithelial necrosis (1)"},
      {"measurement": "Histopathology findings, Kidney", "setting": "NIH-III mice [1]; 331 mg/kg i.p., male, 1 examined", "value": "Basophilic cortical tubules (1); karyomegaly in tubular epithelium (1); tubular epithelial necrosis (1)"},
      {"measurement": "Rate of reduction to M14", "setting": "[2]; anoxic liver S9 from female mice", "value": "9.2 ± 0.2", "unit": "nmol/min/mg protein"},
      {"measurement": "Rate of reduction to M14", "setting": "[2]; anoxic liver S9 from male mice", "value": "10.6 ± 0.2", "unit": "nmol/min/mg protein"},
      {"measurement": "Vmax for formation of M14", "setting": "[2]; anoxic mouse liver S9", "value": "71 ± 2", "unit": "nmol/min/mg protein"},
      {"measurement": "Predicted hepatic clearance", "setting": "[2]; dispersion model", "value": 4.69, "unit": "L/h/kg"},
      {"measurement": "Km", "setting": "[2]; female, NIH-III, liver S9 (9,000 g post-mitochondrial supernatant), pH 7.4, anoxic mouse liver S9, read-out: Apparent Km for formation of M14", "value": "974 ± 71", "unit": "µM"},
      {"measurement": "Predicted hepatic clearance", "setting": "[2]; parallel tube model", "value": 5.01, "unit": "L/h/kg"},
      {"measurement": "Predicted hepatic clearance", "setting": "[2]; well-stirred model, from anoxic S9 CLint, liver assumed entirely anoxic", "value": 3.91, "unit": "L/h/kg"},
      {"measurement": "Apparent Cl", "setting": "[3]; i.p. SN30000 1.86 mg/kg", "value": 33.2, "unit": "L/h/kg"},
      {"measurement": "Apparent Cl", "setting": "[3]; i.p. SN30000 18.6 mg/kg", "value": 26.8, "unit": "L/h/kg"},
      {"measurement": "Apparent Cl", "setting": "[3]; i.p. SN30000 78.3 mg/kg", "value": 7.54, "unit": "L/h/kg"},
      {"measurement": "Apparent Cl", "setting": "[3]; i.p. SN30000 92.8 mg/kg", "value": 5.70, "unit": "L/h/kg"},
      {"measurement": "Apparent Cl", "setting": "[3]; i.p. SN30000 186 mg/kg", "value": 3.55, "unit": "L/h/kg"},
      {"measurement": "Decrease in rectal temperature", "setting": "Wistar rats", "value": "~2.5", "unit": "°C"},
      {"measurement": "MTD", "setting": "[4]", "value": 90, "unit": "mg/kg"},
      {"measurement": "Urinary excretion, % of administered dose", "setting": "Urinary excretion; 18.6 mg/kg i.p.", "value": "3.38 ± 0.03", "unit": "%"},
      {"measurement": "Urinary excretion, % of administered dose", "setting": "Urinary excretion; 186 mg/kg i.p.", "value": "5.64 ± 0.02", "unit": "%"},
      {"measurement": "Urinary excretion, % of injected dose", "setting": "Urinary excretion; by 24 h, dose not stated", "value": "~5", "unit": "%"},
      {"measurement": "Survival", "setting": "NIH-III mice [5]; female, 562 µmol/kg i.p.", "value": "6/6"},
      {"measurement": "Body weight nadir, Day", "setting": "NIH-III mice [5]; female, 562 µmol/kg i.p.", "value": 1},
      {"measurement": "Body weight nadir, Weight loss", "setting": "NIH-III mice [5]; female, 562 µmol/kg i.p.", "value": "8.4 ± 1.7", "unit": "%"},
      {"measurement": "Survival", "setting": "NIH-III mice [5]; female, 750 µmol/kg i.p.", "value": "1/2"},
      {"measurement": "Body weight nadir, Day", "setting": "NIH-III mice [5]; female, 750 µmol/kg i.p.", "value": 2},
      {"measurement": "Body weight nadir, Weight loss", "setting": "NIH-III mice [5]; female, 750 µmol/kg i.p.", "value": 14.4, "unit": "%"},
      {"measurement": "Survival", "setting": "NIH-III mice [5]; female, 1000 µmol/kg i.p.", "value": "0/1"},
      {"measurement": "Survival", "setting": "NIH-III mice [5]; male, 562 µmol/kg i.p.", "value": "7/7"},
      {"measurement": "Body weight nadir, Day", "setting": "NIH-III mice [5]; male, 562 µmol/kg i.p.", "value": 1},
      {"measurement": "Body weight nadir, Weight loss", "setting": "NIH-III mice [5]; male, 562 µmol/kg i.p.", "value": "4.2 ± 1.2", "unit": "%"},
      {"measurement": "Survival", "setting": "NIH-III mice [5]; male, 750 µmol/kg i.p.", "value": "2/3"},
      {"measurement": "Body weight nadir, Day", "setting": "NIH-III mice [5]; male, 750 µmol/kg i.p.", "value": 1},
      {"measurement": "Body weight nadir, Weight loss", "setting": "NIH-III mice [5]; male, 750 µmol/kg i.p.", "value": "12.1 ± 3.8", "unit": "%"},
      {"measurement": "Survival", "setting": "NIH-III mice [5]; male, 1000 µmol/kg i.p.", "value": "1/2"},
      {"measurement": "Body weight nadir, Day", "setting": "NIH-III mice [5]; male, 1000 µmol/kg i.p.", "value": 1},
      {"measurement": "Body weight nadir, Weight loss", "setting": "NIH-III mice [5]; male, 1000 µmol/kg i.p.", "value": 13.3, "unit": "%"},
      {"measurement": "Survival", "setting": "NIH-III mice [5]; male, 1333 µmol/kg i.p.", "value": "1/2"},
      {"measurement": "Body weight nadir, Day", "setting": "NIH-III mice [5]; male, 1333 µmol/kg i.p.", "value": 1},
      {"measurement": "Body weight nadir, Weight loss", "setting": "NIH-III mice [5]; male, 1333 µmol/kg i.p.", "value": 11.6, "unit": "%"}
    ]}
  ]
}
